Data reported in patent publication US6881824B1, “Peptides suitable for use in antigen specific immunosuppressive therapy” (Akzo Nobel N.V., priority 1996, dated 2005).
Ends that are not written are not given here.

B1: HC gp-39 peptide 56 (residues printed as 352-377) (peptide)
peptide: WALDLDDFQGSFCGQD
notes: A 16-mer starting at 352 would end at 367, so this is probably a misprint

Columns and labels:
[1] = target: T1, DR4 (DRB1*0401) molecules (Homo sapiens, UniProt P01903+P01911, A100K/A169T/F76Y/I96L/K127E/L162R/M171V/N62H/P40V/Q125Y/R42H/S133A/S149N/S66Y/V115G/V209L/W38E); experiment: Peptide HLA-DR binding assay (semi-quantitative competition binding); settings: for IC50: competition with biotinylated marker peptide HA 309 Y→F, pH5.0, 44 hr RT
T1 construct: molecules were purified from the homozygous EBV-transformed human B lymphoblastoid cell lines Huly138IC2 and BM92 using the mAb; endogenous in cells
Protocol: DR4 (DRB1*0401) and DR4 (DRB1*0404) molecules were purified from the homozygous EBV-transformed human B lymphoblastoid cell lines Huly138IC2 and BM92 using the mAb t243, directed against a monomorphic determinant on the DR-complex (Lampson, L. A and R. Levy (1980), J. Immunol. 125:293 299).
The peptide binding studies were performed using a semi-quantitative competition binding assay (Joosten et al 1994, Int. Immunol. 6, 751). Briefly, purified HLA-DR molecules (30 nM DR4(DRB1*0401) or 15 nM DR4 (DRB1*0404) were incubated at pH5.0 with 50 nM biotinylated marker peptide (HA 309y→F) and a concentration range of competitor peptide in a final volume of 25 μl binding buffer (PBS containing 0.01% […], 0.05% NP-40, 5% DMSO, 1 mM AEBSF, 1 mM N-ethyl maleimide, 8 mM EDTA and 10 μm pepstatin A). After 44 hr of incubation at RT, HLA DR bound marker peptide was separated from free marker peptide using a 96 well vacuum dotblot apparatus (Hybri. dot, BRL) and a nitrocellulose membrane (Hybond ECL, Amersham, UK). The nitrocellulose filters were blocked with 0.5% DNA blocking reagent (Boehringer) in 0.1 M maleic acid, 150 mM NaCl, pH7.5.
After 0.5-1 hr, the filters were washed in PBS, 0.05% Tween 20 (Sigma) and incubated with Strepcavidin-HRPO (Southern Biotechnology) in a 1:10.000 dilution. Biotinylated peptides were detected by enhanced chemiluminescence using a Western Blot ECL kit (Amersham). Exposure of the preflashed films (Hyperfilm-ECL, Amersham) was for 10 min. The spots were analysed by scanning the films and using Image Quant/Excel software for analysis.
The affinity of a given peptide for binding DRB1*0401-encoded molecules was related to competition with the marker peptide. This relative binding affinity was defined as the peptide concentration at which the signal was reduced to 50% (IC50).

[2] = test system: PBMC from RA patients carrying the DR4 (DRB1*0401) specificity; experiment: Peptide-induced proliferative responses of PBMC from RA patients; type: cell-based, human; settings: for Peptide-induced proliferative response of PBMC, RA 272: RA patient 272, 0401, R; for Peptide-induced proliferative response of PBMC, RA 286: RA patient 286, 0401, R; for Responses to peptides observed in RA patients only: compared with healthy donors; for Peptide-induced proliferative response of PBMC, RA 259: RA patient 259, 0401, R; for Peptide-induced proliferative response of PBMC, RA 276: RA patient 276, 0401, R
Protocol: This study included 7 DR4(DRB1*0401)-positive patients diagnosed as suffering from RA according to the ARA criteria (Arnett et al., (1988), Arthritis Rheum. 31, 315). Peripheral blood samples were obtained with informed consent. There were five women and two men aged 46-79 years. Their duration of disease ranged from over 10 to over 30 years. Three out of 7 patients had at least 3 swollen joints. […] All patients were on medication: Four patients were treated with prednisone, three patients received anti-rheumatic agents and 4 patients were treated with NSAID's as well.
(§1) In order to identify T-cell epitopes within HC gp-39, 59 peptides of 16 AA in length, overlapping by 10 AA were tested for their capacity to induce a proliferative response in PBMC from RA patients and healthy controls carrying the DR4 (DRB1*0401) specificity (Table 1).
(§2) PBMC obtained from heparinized venous peripheral blood were isolated by standard centrifugation on a Ficoll-Paque gradient. Cells were cultured in four-fold at a concentration of 1,5×10^5 cells/well in medium supplemented with 10% heat-inactivated, autologous plasma, L-glutamine, 2-ME and antibiotics in flatbottomed microtiter plates. Cells were incubated in medium alone or in the presence of phytohaemagglutinin (PHA) (2:5 μg/ml) to assert cell viability, or in the presence of 10 or 100 μg/ml of the HC gp-39-derived peptides. In several cases, sets of 2 or 3 sequential peptides were tested due to limited PBMC numbers of individual donors. Cultures were incubated in a total volume of 210 μl for 7 days at […] in a humidified atmosphere of 5% CO2. Cultures were pulsed during the last 18 hours with 0.25 μCi ^3H-thymidine ([^3H]TdR). Cells were harvested on glassfiber filters and [^3H] TdR incorporation was measured by gas scintillation (Packard Matrix 96 βcounter). Only peptides inducing a proliferative response at both 10 and 100 μg/ml were considered to contain a T-cell epitope. Responses were defined positive if stimulation index values (SI, antigen-specific counts per 5 min (cp5 m)/background cp5 m) exceeded or equaled 2.
(§3) T-cell reactivity to HC gp-39-derived peptide as analyzed by measuring the PBMC proliferative response in DR4 (DRB1*0401)-positive RA patients and healthy donors. Proliferative responses were tested in autologous plasma. In Table IIIA and IIIB the results of 7 experiments are presented showing the responses of RA patients (Table IIIA) and the responses of healthy donors (Table IIIB) to 59 overlapping sequences derived from HC gp-39.

[3] = test system: PBMC from RA patients and healthy controls carrying the DR4 (DRB1*0401) specificity; experiment: Proliferative responses of blood mononuclear cells, RA patients and healthy donors taken together; type: cell-based, human; settings: individual peptides; any donor
Protocol: as §1, §2, §3

[4] = test system: PBMC from healthy donors carrying the DR4 (DRB1*0401) specificity; experiment: Peptide-induced proliferative responses of PBMC from healthy donors; type: cell-based, human; settings: for Responses induced only in healthy donors: healthy donors 230, 235
Protocol: Peripheral blood samples from 5 healthy donors carrying the DR4(DRB1*0401) specificity were obtained with informed consent and included in this study as a control.
as §1, §2, §3

[5] = target: T2, DR4 (DRB1*0401) molecules purified from the homozygous EBV-transformed human B lymphoblastoid cell line … (human, UniProt P01903 26-254); experiment: competition binding assay on purified DR4(DRB1*0401)
T2 construct: mature; That form is inferred from purification of the native complex

[6] = 100 and 10 microgram/ml, 7 days, 3H-thymidine incorporation

| Molecule | Relative affinity of binding to DR4 (DRB1*0401), in words [1] | IC50 ([1]; Table IIIA) [µM] | Peptide-induced proliferative response of PBMC, RA 272 [2, 6] | Response of PBMC from RA patient 272 to individual peptides, in words [2] | Peptide-induced proliferative response of PBMC, RA 286 [2, 6] | Responses to peptides observed in RA patients only [2] | Responses to the individual peptides (PBMC proliferation), identifying T-cell epitopes [3] | IC50 ([1]; Table IIIB) [µM] | Peptide-induced proliferative response of PBMC, HD 235 ([4]; healthy donor 235, 0401, R, 100 and 10 microgram/ml, 7 days, 3H-thymidine incorporation) | Responses induced only in healthy donors [4] | Peptide-induced proliferative response of PBMC, RA 191 ([2]; RA patient 191, 0401, R, 100 and 10 microgram/ml, 7 days, 3H-thymidine incorporation) | Peptide-induced proliferative response of PBMC, RA 259 [2, 6] | Peptide-induced proliferative response of PBMC, RA 276 [2, 6] | Peptide-induced proliferative response of PBMC, RA 262 ([2]; RA patient 262, 0401, R, 100 and 10 microgram/ml, 7 days, 3H-thymidine incorporation) | Peptide-induced proliferative response of PBMC, HD 230 ([4]; healthy donor 230, 0401, R, 100 and 10 microgram/ml, 7 days, 3H-thymidine incorporation) | binding result [5] |
| --- | --- | --- | --- | --- | --- | --- | --- | --- | --- | --- | --- | --- | --- | --- | --- | --- |
| MGIPTFGRSFTLASSE [compound 40, MGIPTFGRSFTLASSE] | relatively high affinity | < 1 | pos (positive responses to both 100 and 10 microgram/ml of peptide or sets of peptides (SI≧2 were regarded positive)) | appeared to respond | pos (positive responses to both 100 and 10 microgram/ml of peptide or sets of peptides (SI≧2 were regarded positive)) | observed in RA patients only | observed in one or more donors | – | – | – | – | – | – | – | – | – |
| SPLFRGQEDASPDRFS [compound 34, SPLFRGQEDASPDRFS] | relatively high affinity | < 1 | pos (positive responses to both 100 and 10 microgram/ml of peptide or sets of peptides (SI≧2 were regarded positive)) | appeared to respond | – | observed in RA patients only | observed in one or more donors | – | – | – | – | – | – | – | – | – |
| LAGAMVWALDLDDFQG [compound 55, LAGAMVWALDLDDFQG] | relatively high affinity | < 1 | pos (positive responses to both 100 and 10 microgram/ml of peptide or sets of peptides (SI≧2 were regarded positive)) | appeared to respond | – | observed in RA patients only | observed in one or more donors | – | – | – | – | – | – | – | – | – |
| GRSFTLASSETGVGAP [compound 41, GRSFTLASSETGVGAP] | relatively high affinity | – | – | – | – | – | observed in one or more donors | < 1 | pos (positive responses to both 100 and 10 microgram/ml of peptide or sets of peptides (SI>2 were regarded positive)) | induced only responses in healthy donors | – | – | – | – | – | – |
| YTSWSQYREGDGSCFP [peptide 2, YTSWSQYREGDGSCFP] | intermediate relative affinity | 10 to 100 | pos (positive responses to both 100 and 10 microgram/ml of peptide or sets of peptides (SI≧2 were regarded positive)) | appeared to respond | pos (positive responses to both 100 and 10 microgram/ml of peptide or sets of peptides (SI≧2 were regarded positive)) | observed in RA patients only | observed in one or more donors | – | – | – | pos (positive responses to both 100 and 10 microgram/ml of peptide or sets of peptides (SI≧2 were regarded positive)) | pos (positive responses to both 100 and 10 microgram/ml of peptide or sets of peptides (SI≧2 were regarded positive)) | pos (positive responses to both 100 and 10 microgram/ml of peptide or sets of peptides (SI≧2 were regarded positive)) | – | – | – |
| MLRLGAPASKLVMGIP [compound 38, MLRLGAPASKLVMGIP] | intermediate relative affinity | 10 to 100 | pos (positive responses to both 100 and 10 microgram/ml of peptide or sets of peptides (SI≧2 were regarded positive)) | appeared to respond | pos (positive responses to both 100 and 10 microgram/ml of peptide or sets of peptides (SI≧2 were regarded positive)) | observed in RA patients only | observed in one or more donors | – | – | – | – | pos (positive responses to both 100 and 10 microgram/ml of peptide or sets of peptides (SI≧2 were regarded positive)) | pos (positive responses to both 100 and 10 microgram/ml of peptide or sets of peptides (SI≧2 were regarded positive)) | pos (positive responses to both 100 and 10 microgram/ml of peptide or sets of peptides (SI≧2 were regarded positive)) | – | – |
| PNLKTLLSVGGWNFGS [compound 12, PNLKTLLSVGGWNFGS] | relatively high affinity | – | – | – | – | – | observed in one or more donors | < 1 | – | induced only responses in healthy donors | – | – | – | – | pos (positive responses to both 100 and 10 microgram/ml of peptide or sets of peptides (SI>2 were regarded positive)) | – |
| B1 | – | – | – | – | – | – | – | – | – | – | – | – | – | – | – | binds |
